# Assay results published in patent publication US20240279207A1, “SUBSTITUTED ACYL SULFONAMIDES FOR TREATING CANCER” (The Broad Institute, Inc., priority 2020, published 2024).
# Columns and labels:
# [1] = biological target: T1, Recombinant human His-tagged Kat6a protein (amino acids 194-810) (Homo sapiens, UniProt Q92794); assay: Kat6a activity assay (TR-FRET, acetylation of Histone-H4-derived peptide); assay type: biochemical; conditions: 60 mins at 22° C., 220 nM H4 peptide, 600 nM Acetyl Coenzyme A, read-out: KAT6A - DPF/HAT domain IC50 [mol/l] (arithmetic mean)
# T1 construct: Kat6a protein (amino acids 194-810); His
# T1 sequence (Q92794 194-810): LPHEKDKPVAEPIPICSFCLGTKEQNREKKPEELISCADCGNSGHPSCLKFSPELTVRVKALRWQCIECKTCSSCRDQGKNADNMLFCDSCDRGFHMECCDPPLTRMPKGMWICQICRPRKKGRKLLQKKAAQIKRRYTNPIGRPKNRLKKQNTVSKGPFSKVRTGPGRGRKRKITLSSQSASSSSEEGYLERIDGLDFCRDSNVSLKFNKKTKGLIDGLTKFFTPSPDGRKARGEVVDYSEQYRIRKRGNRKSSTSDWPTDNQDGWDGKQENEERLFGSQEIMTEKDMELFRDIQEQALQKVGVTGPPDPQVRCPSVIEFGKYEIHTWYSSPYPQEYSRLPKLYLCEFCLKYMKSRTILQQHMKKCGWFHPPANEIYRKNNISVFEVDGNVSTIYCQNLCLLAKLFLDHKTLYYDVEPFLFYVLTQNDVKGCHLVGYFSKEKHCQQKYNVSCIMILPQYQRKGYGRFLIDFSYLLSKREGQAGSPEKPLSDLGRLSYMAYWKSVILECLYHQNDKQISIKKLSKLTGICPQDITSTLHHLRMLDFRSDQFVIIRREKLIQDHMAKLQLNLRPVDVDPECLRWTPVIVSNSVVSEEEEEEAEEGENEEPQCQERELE
# Experimental: Kat6a inhibitory activities of the compounds described in the present invention were quantified using a Fluorescence Resonance Energy Transfer (TR-FRET) assay which measures acetylation of a synthetic, biotinylated Histone-H4-derived peptide by the enzyme.
# In this case 50 nl DMSO were used instead of compounds. […] IC50 values were determined by regression analysis based on a 4 parameter equation (minimum, maximum, ICM, Hill; Y=Max+(Min−Max)/(1+(X/ICso) Hill) using the Screener Software (Genedata).
# [2] = system: ESR1 transcription in MVLN cells; assay: MVLN reporter assay: repression of ESR1 transcription (luciferase signal); assay type: cell-based; conditions: Homo sapiens, MVLN, 24 h, luciferase signal after 24 h, read-out: MVLN reporter assay, IC50 [M] (arithmetic mean)
# Excerpt: KAT6A controls transcription of the ESR1 gene in breast cancer cells. Compound treatment that interferes with this mechanism was quantified using MVLN cells. These cells constitutively express the ER and are stably transfected with the luciferase (LUC) reporter gene and the corresponding hormone responsive element derived from the 5′-flanking region of the Xenopus Vitellogenin A2 gene (Pons et al., 1990, Demirpense et al., 1993, Joyeux et al., 1993). The repressive effect on ERα transcription activity of a test chemical is directly related to the luciferase measured in the lysate of treated MVLN cells. […] Each sample was prepared as duplicate and rim wells were excluded. For luciferase signal determination 100 μl of a 1:1 mixture of Steadylite plus (Perkin Elmer; 6016759) and assay medium was added after 24 h for 15 minutes and measured in Victor X3 (Perkin Elmer). To exclude any effects caused by cell loss during the treatment, cell density was determined using Alamar Blue (Invitrogen; DAL1100). Prior to the luciferase measurement 10 μl Alamar Blue were added to each well and the plates were incubated for 2 h in the incubator. Then fluorescence was measured with Victor X3 (Perkin Elmer) at 530 nm/590 nm.
IC50 [1] [nM],IC50 [2] [M],Compound
68.6,1.29e-07,"O=C(NS(=O)(=O)c1cccc2c1CCCC2)c1cc2c(F)cc(N3CC(F)C3)cc2o1 [Example 108, 4-Fluoro-6-(3-fluoroazetidin-1-yl)-N-(5,6,7,8-tetrahydronaphthalene-1-sulfonyl)-1-benzofuran-2-carboxamide]"
10.5,1.33e-07,"CC(C)Oc1ccc(Br)cc1S(=O)(=O)NC(=O)c1cc2c(F)cc(N3CCC3)cc2o1 [Example 170, 6-(azetidin-1-yl)-N-{5-bromo-2-[(propan-2-yl)oxy]benzene-1-sulfonyl}-4-fluoro-1-benzofuran-2-carboxamide]"
464,> 2e-05,"O=C(NS(=O)(=O)c1cc(C(F)(F)F)ccc1NCC(F)F)c1cc2c(F)cc(N3CCC3)cc2o1 [Example 92, 6-(Azetidin-1-yl)-N-{2-[(2,2-difluoroethyl)amino]-5-(trifluoromethyl)benzene-1-sulfonyl}-4-fluoro-1-benzofuran-2-carboxamide]"
172,5.92e-07,"O=C(NS(=O)(=O)c1cccc2c1OCCO2)c1cc2c(F)cc(N3CC(F)C3)cc2o1 [Example 109, N-(2,3-dihydro-1,4-benzodioxine-5-sulfonyl)-4-fluoro-6-(3-fluoroazetidin-1-yl)-1-benzofuran-2-carboxamide]"
6250,> 2e-05,"O=C(NS(=O)(=O)c1ccccc1C1=NOCCO1)c1cc2c(F)cc(N3CCC3)cc2o1 [Example 96, 6-(Azetidin-1-yl)-N-[2-(5,6-dihydro-1,4,2-dioxazin-3-yl)benzene-1-sulfonyl]-4-fluoro-1-benzofuran-2-carboxamide]"
14000,> 2e-05,"CN(C)c1ccc(Cl)c(S(=O)(=O)NC(=O)c2cc3c(F)cc(N4CCC4)cc3o2)c1 [Example 97, 6-(Azetidin-1-yl)-N-[2-chloro-5-(dimethylamino)benzene-1-sulfonyl]-4-fluoro-1-benzofuran-2-carboxamide]"
1510,> 2e-05,"Cc1ncccc1S(=O)(=O)NC(=O)c1cc2c(F)cc(N3CCC3)cc2o1 [Example 94, 6-(Azetidin-1-yl)-4-fluoro-N-(2-methylpyridine-3-sulfonyl)-1-benzofuran-2-carboxamide]"
272,8.1e-07,"CC(=O)c1ccc(Cl)c(S(=O)(=O)NC(=O)c2cc3c(F)cc(N4CCC4)cc3o2)c1 [Example 99, N-(5-Acetyl-2-chlorobenzene-1-sulfonyl)-6-(azetidin-1-yl)-4-fluoro-1-benzofuran-2-carboxamide]"
32.3,5.49e-07,"COc1ccc(-c2cnn(C)c2)cc1S(=O)(=O)NC(=O)c1cc2c(F)cc(N3CCC3)cc2o1 [Example 199, 6-(Azetidin-1-yl)-4-fluoro-N-[2-methoxy-5-(1-methyl-1H-pyrazol-4-yl)benzene-1-sulfonyl]-1-benzofuran-2-carboxamide]"
195,9.61e-06,"CC(=O)Nc1ccc(S(=O)(=O)NC(=O)c2cc3c(F)cc(N4CCC4)cc3o2)c2ccccc12 [Example 185, N-(4-Aacetamidonaphthalene-1-sulfonyl)-6-(azetidin-1-yl)-4-fluoro-1-benzofuran-2-carboxamide]"
476,5.29e-06,"Cc1cnc(Cl)c(S(=O)(=O)NC(=O)c2cc3c(F)cc(N4CCC4)cc3o2)c1 [Example 60, 6-(Azetidin-1-yl)-N-(2-chloro-5-methylpyridine-3-sulfonyl)-4-fluoro-1-benzofuran-2-carboxamide]"
57.1,8.32e-06,"COc1cccc2c(S(=O)(=O)NC(=O)c3cc4c(F)cc(N5CCC5)cc4o3)cccc12 [Example 65, 6-(Azetidin-1-yl)-4-fluoro-N-(5-methoxynaphthalene-1-sulfonyl)-1-benzofuran-2-carboxamide]"
44.9,1.65e-07,"Cc1cc(S(=O)(=O)NC(=O)c2cc3c(F)cc(N4CCC4)cc3o2)c2ncccc2c1 [Example 175, 6-(Azetidin-1-yl)-4-fluoro-N-(6-methylquinoline-8-sulfonyl)-1-benzofuran-2-carboxamide]"
548,7.93e-06,"Cn1nc(S(=O)(=O)NC(=O)c2cc3c(F)cc(N4CCC4)cc3o2)c2ccc(C(F)(F)F)nc21 [Example 144, 6-(Azetidin-1-yl)-4-fluoro-N-[1-methyl-6-(trifluoromethyl)-1H-pyrazolo[3,4-b]pyridine-3-sulfonyl]-1-benzofuran-2-carboxamide]"
54.8,3.33e-07,"Cc1cccc(OC(C)C)c1S(=O)(=O)NC(=O)c1cc2c(F)cc(N3CCC3)cc2o1 [Example 86, 6-(Azetidin-1-yl)-4-fluoro-N-{2-methyl-6-[(propan-2-yl)oxy]benzene-1-sulfonyl}-1-benzofuran-2-carboxamide]"
402,8.4e-06,"Cc1ccc2c(S(=O)(=O)NC(=O)c3cc4c(F)cc(N5CCC5)cc4o3)nn(C)c2n1 [Example 145, 6-(Azetidin-1-yl)-N-(1,6-dimethyl-1H-pyrazolo[3,4-b]pyridine-3-sulfonyl)-4-fluoro-1-benzofuran-2-carboxamide]"
19.3,3.66e-07,"O=C(NS(=O)(=O)c1cc(Br)ccc1OC(F)(F)F)c1cc2c(F)cc(N3CCC3)cc2o1 [Example 82, 6-(Azetidin-1-yl)-N-[5-bromo-2-(trifluoromethoxy)benzene-1-sulfonyl]-4-fluoro-1-benzofuran-2-carboxamide]"
208,5.47e-07,"O=C(NS(=O)(=O)c1cccc2c1NCCC2)c1cc2c(F)cc(N3CC(F)C3)cc2o1 [Example 110, 4-Fluoro-6-(3-fluoroazetidin-1-yl)-N-(1,2,3,4-tetrahydroquinoline-8-sulfonyl)-1-benzofuran-2-carboxamide]"
12900,1.73e-05,"CCOc1ccccc1S(=O)(=O)NC(=O)c1cc2ccc(N3CC(C(F)(F)F)C3)cc2o1 [Example 117, N-(2-Ethoxybenzene-1-sulfonyl)-6-[3-(trifluoromethyl)azetidin-1-yl]-1-benzofuran-2-carboxamide]"
> 20000,> 2e-05,"O=C(NS(=O)(=O)c1ccc(O)c2ccccc12)c1cc2c(F)cc(N3CCC3)cc2o1 [Example 106, 6-(Azetidin-1-yl)-4-fluoro-N-(4-hydroxynaphthalene-1-sulfonyl)-1-benzofuran-2-carboxamide]"
109,1.3e-06,"CCN(C)C(=O)c1ccccc1S(=O)(=O)NC(=O)c1cc2c(F)cc(N3CCC3)cc2o1 [Example 47, 6-(Azetidin-1-yl)-N-{2-[ethyl(methyl)carbamoyl]benzene-1-sulfonyl}-4-fluoro-1-benzofuran-2-carboxamide]"
4070,> 2e-05,"CCOc1ccccc1S(=O)(=O)NC(=O)c1cc2c(F)cc(N3CC[C@@H]3C(N)=O)cc2o1 (racemic) [Example 169, 1-{2-[(2-Ethoxybenzene-1-sulfonyl)carbamoyl]-4-fluoro-1-benzofuran-6-yl}azetidine-2-carboxamide (rac)]"
49.7,3.79e-07,"CC(C)Oc1cccc(Cl)c1S(=O)(=O)NC(=O)c1cc2c(F)cc(N3CCC3)cc2o1 [Example 29, 6-(Azetidin-1-yl)-N-{2-chloro-6-[(propan-2-yl)oxy]benzene-1-sulfonyl}-4-fluoro-1-benzofuran-2-carboxamide]"
